In EP2402322A1, “1,2,3,4-tetrahydroisoquinoline derivative and its use as orexin receptor antagonist” (Actelion Pharmaceuticals Ltd., priority 2010, dated 2012):
Read-outs that look alike come from different tables or passages of the source.

Key:
rat [1] = settings: cited from earlier work
rat [2] = settings: animal model of conditioned fear; cited from earlier work
[3] = rat; cited from earlier work
human orexin-1 receptor = molecular target: T1, human orexin-1 receptor (Homo sapiens, UniProt O43613); assay: Intracellular calcium measurements (FLIPR), CHO cells, 3 nM orexin-A as agonist; format: cell-based
T1 construct: expressed in transfected cells; host or cells: CHO cells (G418 selection)
T1 sequence (O43613 1-425): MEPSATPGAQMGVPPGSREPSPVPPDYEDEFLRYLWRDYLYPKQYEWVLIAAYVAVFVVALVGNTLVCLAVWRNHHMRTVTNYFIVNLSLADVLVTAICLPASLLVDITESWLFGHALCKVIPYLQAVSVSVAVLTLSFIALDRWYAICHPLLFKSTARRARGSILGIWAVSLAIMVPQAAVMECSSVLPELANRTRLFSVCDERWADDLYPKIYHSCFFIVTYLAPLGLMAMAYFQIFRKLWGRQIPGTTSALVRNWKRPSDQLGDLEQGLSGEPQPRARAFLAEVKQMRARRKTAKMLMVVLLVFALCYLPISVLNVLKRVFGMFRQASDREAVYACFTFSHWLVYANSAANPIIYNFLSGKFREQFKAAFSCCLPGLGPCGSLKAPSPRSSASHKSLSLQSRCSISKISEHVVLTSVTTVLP
Method: Chinese hamster ovary (CHO) cells expressing the human orexin-1 receptor and the human orexin-2 receptor, respectively, are grown in culture medium (Ham F-12 with L-Glutamine) containing 300 µg/ml G418, 100 U/ml penicillin, 100 µg/ml streptomycin and 10 % heat inactivated fetal calf serum (FCS). The cells are seeded at 20'000 cells / well into 384-well black clear bottom sterile plates (Greiner). The seeded plates are incubated overnight at 37°C in 5% CO2.
Human orexin-A as an agonist is prepared as 1 mM stock solution in MeOH: water (1:1), diluted in HBSS containing 0.1 % bovine serum albumin (BSA), NaHCO3: 0.375g/l and 20 mM HEPES for use in the assay at a final concentration of 3 nM. […]
Within the Fluorescent Imaging Plate Reader (FLIPR Tetra, Molecular Devices), antagonists are added to the plate in a volume of 10 µl/well, incubated for 10 min and finally 10 µl/well of agonist is added. Fluorescence is measured for each well at 1 second intervals, and the height of each fluorescence peak is compared to the height of the fluorescence peak induced by 3 nM orexin-A with vehicle in place of antagonist. […] The calculated IC50 values may fluctuate depending on the daily cellular assay performance. […]

Male Sprague Dawley rats = assay: Acquisition of morphine induced locomotor sensitization; format: in vivo; settings: 300 mg/kg p.o. 2 h before each morphine injection (10 mg/kg i.p.), 4 pairings; Figure 1
Text: Method: Although, in essence, locomotor sensitization is a non-associative learning process, the context plays a major role in the development and expression of locomotor sensitization. Thus, drug injections are usually administered intermittently in a context different from the home cage, such as an open field, where locomotor activity can be quantitatively measured. Drugs are regularly administered in high concentrations and via routes of administration with a fast onset of action (such as intraperitoneal or intravenous injections). In order to induce robust locomotor sensitization drugs are administered typically once a day over a period of several days. Once established in such a way, locomotor sensitization can be observed in response to a new drug challenge over a period of up to several months.
Method: Male Sprague Dawley rats are injected with morphine (10 mg/kg i.p.) and placed immediately afterwards in an open field (45 x 40 x 33 cm) for 45 min. Total distance moved (TDM) of the animal is recorded automatically via video-tracking. This procedure is repeated 4 times, every 2nd day, so that each animal received a total number of 4 pairings of morphine injection within the context of the open field.

Wistar rats = assay: EEG, EMG and behavioural indices of alertness recorded by radiotelemetry (absence of sleep-promoting effects); format: in vivo
Method: EEG and EMG signals were measured by telemetry using TL11 M2-F20-EET miniature radiotelemetric implants (Data Science Int.) with two pairs of differential leads.
Surgical implantation was performed under general anesthesia with Ketamin/Xylazln, for cranial placement of one differential pair of EEG electrodes and one pair of EMG leads inserted in either side of the muscles of the neck. After surgery, rats recovered in a thermoregulated chamber and received analgesic treatment with subcutaneous buprenorphine twice a day for 2 d. They were then housed individually and allowed to recover for a minimum of 2 weeks. Thereafter, rats—in their home cage—were placed in a ventilate sound-attenuating box, on a 12-h light / 12-h dark cycle, for acclimatization before continuous EEG / EMG recordings started. The telemetric technology that we used in this study allows accurate and stress-free acquisition of biosignals in rats placed In their familiar home cage environment, with no recording leads restricting their movements. Variables analyzed included four different stages of vigilance and sleep, spontaneous activity in the home cage and body temperature. Sleep and wake stages were evaluated using a rodent scoring software (Somnologica Science) directly processing electrical biosignals on 10 s contiguous epochs. The scoring is based on frequency estimation for EEG and amplitude discrimination for EMG and locomotor activity. Using these measurements, the software determines the probability that all components within each epoch best represent active waking (AW), quiet waking (QW), non-REM-sleep (NREM) or REM-sleep (REM). The percentage of total time spent in AW, QW. NREM- and REM-sleep was calculated per 12 h light or dark period. The latency to the onset of the first significant NREM- and REM-sleep episodes and the frequency and duration of those episodes were also calculated. […] All variables were subsequently recorded for 12 h following administration of the orexin receptor antagonist.

[4] = Measurement of brain and systemic concentration after oral administration; format: in vivo, male wistar rats; settings: rat; for concentration at 3 h: 3 h after oral administration (100 mg/kg), n = 3, male wistar rats, 100% PEG 400; for capacity to cross the blood-brain barrier: summary statement
Method: The compounds are formulated in 100% PEG 400. Samples are collected in the same animal at the same time point (+/- 5 min). Blood is sampled from the vena cava caudalis into containers with EDTA as anticoagulant and centrifuged to yield plasma. Brain is sampled after cardiac perfusion of 10 mL NaCl 0.9% and homogenized into one volume of cold phosphate buffer (pH 7.4). All samples are extracted with MeOH and analyzed by LC-MS/MS. Concentrations are determined with the help of calibration curves.

F344 rats = assay: Fear-potentiated startle paradigm; format: in vivo; settings: 300 mg/kg oral gavage, 1 h before test, n=16 F344 rats; Figure 2
Text: The fear-potentiated startle (FPS) paradigm is a model of conditioned fear in rodents that relates to emotional states of fear and anxiety. Rats can be trained to associate an initially neutral, soon-to-be conditioned stimulus (CS: e.g. light) with an aversive, unconditioned stimulus (US; e.g. foot shook). When tested after training for their startle reflex response to brief (ms) noise bursts in the absence vs. the presence of the CS (e.g. light), rats generally show greater startle amplitudes during the presence of the CS which now serves as a predictor of shock. […] This model translates to humans where a similar training procedure can be implemented and a FPS response can also be evoked in the presence of a shock predicting cue. […] The current paradigm represents a translational animal model that is predictive of anxiolytic activity of a drug.
Method: Sixteen adult male F344 rats were trained for two consecutive days (conditioning phase) to associate a light-stimulus with a foot shock (0.4 mA). On the following day they were tested for their response to startle eliciting noise stimuli which were delivered randomly under light (cue) or dark (no cue) conditions. […] Average startle responses to noise stimuli of 90, 100 and 110dB intensity under light and dark conditions during the test day were measured and electrically transduced into a millivolt signal. […]

human orexin-2 receptor = molecular target: T2, human orexin-2 receptor (Homo sapiens, UniProt O43614); assay: Intracellular calcium measurements (FLIPR), CHO cells, 3 nM orexin-A as agonist; format: cell-based; settings: geometric mean; antagonism of 3 nM orexin-A
T2 construct: expressed in transfected cells; host or cells: CHO cells (G418 selection)
T2 sequence (O43614 1-444): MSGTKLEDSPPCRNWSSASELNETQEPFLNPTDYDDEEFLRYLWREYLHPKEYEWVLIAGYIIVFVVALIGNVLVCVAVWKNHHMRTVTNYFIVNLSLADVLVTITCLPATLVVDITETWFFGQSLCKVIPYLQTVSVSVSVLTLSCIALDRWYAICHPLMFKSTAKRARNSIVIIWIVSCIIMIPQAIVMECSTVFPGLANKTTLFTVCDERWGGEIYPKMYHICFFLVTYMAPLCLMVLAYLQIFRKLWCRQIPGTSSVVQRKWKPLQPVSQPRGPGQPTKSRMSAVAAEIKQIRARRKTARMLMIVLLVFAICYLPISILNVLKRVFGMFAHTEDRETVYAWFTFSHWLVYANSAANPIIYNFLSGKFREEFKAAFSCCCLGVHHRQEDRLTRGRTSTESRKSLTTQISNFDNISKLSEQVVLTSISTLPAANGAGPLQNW
Method: Fluorescence is measured for each well at 1 second intervals, and the height of each fluorescence peak is compared to the height of the fluorescence peak induced by 3 nM orexin-A with vehicle in place of antagonist. […] Optimized conditions were achieved by adjustment of pipetting speed and cell splitting regime. The calculated IC50 values may fluctuate depending on the daily cellular assay performance. Fluctuations of this kind are known to those skilled in the art.

[5] = 300 mg/kg po, Wistar rats, 12 h following administration
[6] = brain, read-out: concentration in brain [B]
[7] = plasma, read-out: concentration in plasma [P]

Structure (SMILES) | alertness (active wake and locomotion) (rat [1]) | time spent in both REM and NREM sleep (rat [1]) | activity in the rat fear potentiated startle paradigm (rat [2]) | crossing of the blood-brain barrier [3] | systemic bioavailability [3] | IC50 (human orexin-1 receptor) [nM] | acquisition of locomotor sensitization to morphine (total distance moved) (Male Sprague Dawley rats) | effect on NREM sleep compared to vehicle controls (Wistar rats; [5]) [%] | effect on REM sleep compared to vehicle controls (Wistar rats; [5]) | effect on active wake compared to vehicle controls (Wistar rats; [5]) [%] | effect on home cage activity compared to vehicle controls (Wistar rats; [5]) [%] | effect in a model relevant to sleep induction (Wistar rats; at relevant dose, summary statement) | concentration at 3 h [4, 6] [ng/g] | concentration at 3 h [4, 7] [ng/mL] | capacity to cross the blood-brain barrier [4] | fear-potentiated startle response under light (cue) conditions as compared to vehicle (F344 rats) | IC50 (human orexin-1 receptor; geometric mean, antagonism of 3 nM orexin-A, read-out: IC50 value on the orexin-1 receptor) [nM] | IC50 (human orexin-2 receptor) [nM]
CNC(=O)[C@@H](c1ccccc1)N1CCc2cc(OC)c(OC)cc2[C@@H]1CCc1ccc(C(F)(F)F)cc1 [(2R)-2-{(1S)-6,7-dimethoxy-1-[2-(4-trifluoromethyl-phenyl)-ethyl]-3,4-dihydro-1H-isoquinolin-2-yl}-N-methyl-2-phenyl-acetamide] | decrease alertness | dose-dependently increase | active | cross the blood-brain barrier | good | – | – | – | – | – | – | – | – | – | – | – | – | –
COc1ccc(C[C@H]2c3cc(OC)c(OC)cc3CCN2[C@@H](C(=O)NC(C)C)c2ccccc2)cc1OC [COMPOUND, (R)-2-[(S)-1-(3,4-dimethoxy-benzyl)-6,7-dimethoxy-3,4-dihydro-1H-isoquinolin-2-yl]-N-isopropyl-2-phenyl-acetamide] | – | – | – | – | – | 27 | significantly reduced | -2 | +1% | -4 | -3 | no effect | 880 | 1460 | crossed the blood-brain barrier | significantly reduced | – | –
CCCCNC(=O)[C@@H](c1ccccc1)N1CCc2cc(OC)c(OC)cc2[C@@H]1Cc1ccc(OC)c(OC)c1 [Reference Compound 1, (R)-2-[(S)-1-(3,4-Dimethoxy-benzyl)-6,7-dimethoxy-3,4-dihydro-1H-isoquinolin-2-yl]-N-butyl-2-phenyl-acetamide, reference compound] | – | – | – | – | – | – | – | – | – | – | – | – | 530 | 850 | only moderate capacity | no effect | 12 | > 300
